Data taken from patent US20260293894A1, “FUSED PYRROLIDINE-2-ONE HERBICIDAL COMPOUNDS” (SYNGENTA CROP PROTECTION AG, priority 2023, published 2026).

Tests used:
Format in all cases: in vivo
Details in all cases: 1000 g/Ha, evaluated after 13 days, glasshouse
[1] = system: Amaranthus retroflexus (AMARE); assay: Pre-emergence herbicidal activity, percentage damage to AMARE
Description: (§1) Seeds of a variety of test species are sown in standard soil in pots Amaranthus palmeri (AMAPA), Amaranthus retroflexus (AMARE), Setaria faberi (SETFA), Echinochloa crus-galli (ECHCG), Ipomoea hederacea (IPOHE),). After cultivation for one day (pre-emergence) or after 8 days cultivation (post-emergence) under controlled conditions in a glasshouse (at 24/160C, day/night; 14 hours light; 65% humidity), the plants are sprayed with an aqueous spray solution derived from the dissolution of the technical active ingredient in a small amount of acetone and a special solvent and emulsifier mixture referred to as IF50 (11.12% Emulsogen EL360 TM+44.44% N-methylpyrrolidone+44.44% Dowanol DPM glycol ether, which was then diluted to required concentration using 0.2% Genapol XO80 (CAS No. 9043-30-5) in water as the diluent. Compounds are applied at the rates stated. The test plants are then grown in a glasshouse under controlled conditions in a glasshouse (at 24/160C, day/night; 14 hours light; 65% humidity) and watered twice daily. After 13 days for pre and post-emergence, the test is evaluated for the percentage damage caused to the plant. The biological activities are shown in the following table on a five-point scale (5=81-100%; 4=61-80%; 3=41-60%; 2=21-40%; 1=0-20%; NT=not tested).

Setaria faberi (SETFA) [2] = assay: Pre-emergence herbicidal activity, percentage damage to SETFA
Description: as §1

[3] = system: Echinochloa crus-galli (ECHCG); assay: Pre-emergence herbicidal activity, percentage damage to ECHCG
Description: as §1

[4] = system: Amaranthus palmeri (AMAPA); assay: Pre-emergence herbicidal activity, percentage damage to AMAPA
Description: as §1

[5] = system: Ipomoea hederacea (IPOHE); assay: Post-emergence herbicidal activity, percentage damage to IPOHE
Description: as §1

[6] = system: Amaranthus palmeri (AMAPA); assay: Post-emergence herbicidal activity, percentage damage to AMAPA
Description: as §1

[7] = system: Amaranthus retroflexus (AMARE); assay: Post-emergence herbicidal activity, percentage damage to AMARE
Description: as §1

[8] = system: Echinochloa crus-galli (ECHCG); assay: Post-emergence herbicidal activity, percentage damage to ECHCG
Description: as §1

Setaria faberi (SETFA) [9] = assay: Post-emergence herbicidal activity, percentage damage to SETFA
Description: as §1

[10] = system: Ipomoea hederacea (IPOHE); assay: Pre-emergence herbicidal activity, percentage damage to IPOHE
Description: as §1

SMILES | percentage damage caused to the plant (AMARE) [1] | percentage damage caused to the plant (SETFA) (Setaria faberi (SETFA) [2]) | percentage damage caused to the plant (ECHCG) [3] | percentage damage caused to the plant (AMAPA) [4] | percentage damage caused to the plant (IPOHE) [5] | percentage damage caused to the plant (AMAPA) [6] | percentage damage caused to the plant (AMARE) [7] | percentage damage caused to the plant (ECHCG) [8] | percentage damage caused to the plant (SETFA) (Setaria faberi (SETFA) [9]) | percentage damage caused to the plant (IPOHE) [10]
O=C(O)C[C@@H]1[C@@H]2C[C@@H]2C(=O)N1Cc1ccc(Cl)cc1F (relative stereo) [A.76, 2-[(1R*,2R*,5S*)-3-[(2-fluoro-4-chloro)methyl]-4-oxo-3-azabicyclo[3.1.0]hexan-2-yl]acetic acid] | 1 (0-20%) | 3 (41-60%) | 1 (0-20%) | 3 (41-60%) | 2 (21-40%) | 1 (0-20%) | 1 (0-20%) | 1 (0-20%) | 3 (41-60%) | 4 (61-80%)
COC(=O)C[C@H]1[C@@H]2C[C@@H]2C(=O)N1Cc1cccc(F)c1F (relative stereo) [A.10, methyl 2-[(1R*,2S*,5S*)-3-[(2,3-difluorophenyl)methyl]-4-oxo-3-azabicyclo[3.1.0]hexan-2-yl]acetate] | 2 (21-40%) | 4 (61-80%) | 1 (0-20%) | 2 (21-40%) | 2 (21-40%) | 1 (0-20%) | 2 (21-40%) | 2 (21-40%) | 4 (61-80%) | 1 (0-20%)
O=C(O)C[C@H]1[C@@H]2CCCC[C@@H]2C(=O)N1Cc1cccc(F)c1F (relative stereo) [E.04, 2-[(1S*,3aS*,7aR*)-2-[(2,3-difluorophenyl)methyl]-3-oxo-3a,4,5,6,7,7a-hexahydro-1H-isoindol-1-yl]acetic acid] | 4 (61-80%) | 3 (41-60%) | 1 (0-20%) | 4 (61-80%) | 1 (0-20%) | 1 (0-20%) | 1 (0-20%) | 1 (0-20%) | 1 (0-20%) | 1 (0-20%)
O=C(O)C[C@@H]1[C@@H]2C[C@@H]2C(=O)N1Cc1ccc(F)c(F)c1F (relative stereo) [Compound A.13, 2-[(1R*,2R*,5S*)-3-[(2,3,4-trifluorophenyl)methyl]-4-oxo-3-azabicyclo[3.1.0]hexan-2-yl]acetic acid] | 4 (61-80%) | 5 (81-100%) | 3 (41-60%) | 3 (41-60%) | 2 (21-40%) | 2 (21-40%) | 3 (41-60%) | 3 (41-60%) | 5 (81-100%) | 4 (61-80%)
O=C(O)C[C@H]1[C@@H]2C[C@@H]2C(=O)N1Cc1cccc(F)c1F (relative stereo) [Compound A.04, 2-[(1R*,2S*,5S*)-3-[(2,3-difluorophenyl)methyl]-4-oxo-3-azabicyclo[3.1.0]hexan-2-yl]acetic acid] | 2 (21-40%) | 3 (41-60%) | 2 (21-40%) | 2 (21-40%) | 1 (0-20%) | 1 (0-20%) | 1 (0-20%) | 3 (41-60%) | 4 (61-80%) | 1 (0-20%)
O=C(O)C[C@@H]1[C@@H]2C[C@@H]2C(=O)N1Cc1ccc(Cl)c(F)c1 (relative stereo) [A.79, 2-[(1R*,2R*,5S*)-3-[(3-fluoro-4-chloro)methyl]-4-oxo-3-azabicyclo[3.1.0]hexan-2-yl]acetic acid] | 1 (0-20%) | 4 (61-80%) | 2 (21-40%) | 1 (0-20%) | 1 (0-20%) | 1 (0-20%) | 1 (0-20%) | 1 (0-20%) | 4 (61-80%) | 1 (0-20%)
O=C(O)C[C@@H]1[C@@H]2C[C@@H]2C(=O)N1Cc1ccc(F)c(Cl)c1 (relative stereo) [A.82, 2-[(1R*,2R*,5S*)-3-[(3-chloro-4-fluoro)methyl]-4-oxo-3-azabicyclo[3.1.0]hexan-2-yl]acetic acid] | 2 (21-40%) | 4 (61-80%) | 1 (0-20%) | 2 (21-40%) | 2 (21-40%) | 1 (0-20%) | 2 (21-40%) | 1 (0-20%) | 4 (61-80%) | 1 (0-20%)
O=C(O)C[C@@H]1[C@@H]2CCCC[C@@H]2C(=O)N1Cc1cccc(F)c1F (relative stereo) [E.01, 2-[(1R*,3aS*,7aR*)-2-[(2,3-difluorophenyl)methyl]-3-oxo-3a,4,5,6,7,7a-hexahydro-1H-isoindol-1-yl]acetic acid] | 3 (41-60%) | 1 (0-20%) | 2 (21-40%) | 3 (41-60%) | 1 (0-20%) | 1 (0-20%) | 1 (0-20%) | 1 (0-20%) | 1 (0-20%) | –
O=C(O)C[C@@H]1[C@@H]2C[C@@H]2C(=O)N1Cc1ccccc1F (relative stereo) [A.61, 2-[(1R*,2R*,5S*)-3-[(2-fluorophenyl)methyl]-4-oxo-3-azabicyclo[3.1.0]hexan-2-yl]acetic acid] | 5 (81-100%) | 5 (81-100%) | 3 (41-60%) | 4 (61-80%) | 3 (41-60%) | 3 (41-60%) | 4 (61-80%) | 3 (41-60%) | 5 (81-100%) | 1 (0-20%)
